These results are taken from patent US5543415A, “Antidepressants” (Kyowa Hakko Kogyo Co., Ltd., priority 1992, dated 1996).

Data set [1] relates to clonidine-induced aggressive behavior. As to the kind of experiment: Effect on Clonidine-Induced Aggressive Behavior (number of biting attacks during 30 minutes). As to conditions: po; for Number of the Biting Attacks (mean ± S.E.M.), Test Compound-Treated Group: 60 min before clonidine 20 mg/kg ip, 30 min count. Type of data set: in vivo, male ddY mice. The procedure: The effect of a test compound on the aggressive behavior induced by intraperitoneal administration of clonidine was investigated. […] The experiment was performed by using several groups of male ddY mice (weighing 20 to 25 g, Japan SLC), each group consisting of two mice. The test compound was suspended in injectable distilled water (Otsuka Pharmaceutical Co., Ltd.) containing Tween 80 [polyoxyethylene (20) sorbitan monooleate]. Clonidine hydrochloride (Sigma Co.) was dissolved in physiological saline solution (Otsuka Pharmaceutical Co., Ltd.). The test compound suspension and the control suspension were orally administered to separate groups of the mice (0.1 ml per 10 g of body weight). Sixty minutes after the oral administration of the test compound, clonidine hydrochloride (20 mg/kg) was intraperitoneally injected. The number of biting attacks during 30 minutes after clonidine treatment was counted. The effect of the compound was evaluated by comparing the average number of biting attacks of the test compound-administered groups with that of control groups (Statistical comparison: Student's t-test).

In data set [2] the test system is ddY-strain male mice. The data set can be described thus: Acute Toxicity Test (minimum lethal dose, oral). As to conditions: seven days after administration. Type of data set: in vivo. On the procedure: Test compounds were orally administered to groups of ddY-strain male mice weighing 20±1 g, each group consisting of three mice. Seven days after the administration, minimum lethal dose (MLD) of each compound was determined by observing the mortality.

Where [3] appears, read: Mus musculus, 10 mg/kg, read-out: Number of the Attacks of Test Compound-Treated Group/Number of the Attacks of Control Group.
Where [4] appears, read: Mus musculus, 0.63 mg/kg, read-out: Number of the Attacks of Test Compound-Treated Group/Number of the Attacks of Control Group.
[5] abbreviates: Mus musculus, 2.5 mg/kg, read-out: Number of the Attacks of Test Compound-Treated Group/Number of the Attacks of Control Group.

Read-outs that look alike come from different tables or passages of the source.

As for `C=CCn1c(=O)c2c(nc(/C=C/c3ccc(OC)c(OC)c3)n2C)n(CC=C)c1=O` [Compound 70, (E)-1,3-Diallyl-8-(3,4-dimethoxystyryl)-7-methylxanthine], in data set [1] (10 mg/kg), the “Number of the Biting Attacks (mean ± S.E.M.), Test Compound-Treated Group” value (from here on “Number of the Biting Attacks”) is recorded as 60.3 ± 11.71. Also, the response vs control in vivo at 10 mg/kg in data set [1] (setting [3]) was found to be 790%. In addition, the “MLD (minimum lethal dose)” value in data set [2] is over 100 mg/kg.
In the case of `CCOc1ccc(/C=C/c2nc3c(c(=O)n(CC)c(=O)n3CC)n2C)cc1` [Compound 124, (E)-8-(4-Ethoxystyryl)-1,3-diethyl-7-methylxanthine], the “Number of the Biting Attacks” value in data set [1] (2.5 mg/kg) is on record as 85.8 ± 12.41; in data set [1] (10 mg/kg), 50.5 ± 17.7. The “MLD (minimum lethal dose)” value in data set [2] was over 300 mg/kg.
Consider `CCn1c(=O)c2c(nc(/C=C/c3cccc(F)c3C)n2C)n(CC)c1=O` [Compound 181, (E)-1,3-Diethyl-8-(3-fluoro-2-methylstyryl)-7-methylxanthine], for which the “Number of the Biting Attacks” value in data set [1] (10 mg/kg) was determined as 49.5 ± 9.09. The response vs control in vivo at 10 mg/kg in data set [1] (setting [3]) was found to be 800%. For the same molecule, in data set [2], the “MLD (minimum lethal dose)” value was over 100 mg/kg.
Turning to `CCn1c(=O)c2c(nc(/C=C/c3cc(OC)c(OC)c(OC)c3)n2C)n(CC)c1=O` [Compound 4, (E)-1,3-diethyl-7-methyl-8-(3,4,5-trimethoxystyryl)xanthine], the “Number of the Biting Attacks” value in data set [1] (0.63 mg/kg) was 25.3 ± 4.51; in data set [1] (2.5 mg/kg) it was 36.9 ± 7.81; in data set [1] (10 mg/kg), 51.3 ± 9.37. Further, the response vs control in vivo at 0.63 mg/kg in data set [1] (setting [4]) stood at 970%. Further, the response vs control in vivo at 2.5 mg/kg in data set [1] (setting [5]) came to 540%. In addition, the “MLD (minimum lethal dose)” value in data set [2] is recorded as over 300 mg/kg.
Take `CCn1c(=O)c2c(nc(/C=C/c3ccc(O)cc3)n2C)n(CC)c1=O` [Compound 184, (E)-1,3-Diethyl-8-(4-hydroxystyryl)-7-methylxanthine]: the “Number of the Biting Attacks” value in data set [1] (10 mg/kg) was 77.1 ± 11.47. Further, the “MLD (minimum lethal dose)” value in data set [2] is over 100 mg/kg.
Turning to `COc1cc(/C=C/c2nc3c(c(=O)n(C)c(=O)n3C)n2C)cc(OC)c1OC` [Compound 2, (E)-8-(3,4,5-trimethoxystyryl)caffeine], the “Number of the Biting Attacks” value in data set [1] (1.25 mg/kg) stood at 29.0 ± 7.9. Moreover, the response vs control in vivo at 1.25 mg/kg in data set [1] (Mus musculus, 1.25 mg/kg, read-out: Number of the Attacks of Test Compound-Treated Group/Number of the Attacks of Control Group) is 470%. The “MLD (minimum lethal dose)” value in data set [2] is reported as over 300 mg/kg.
Consider `CCn1c(=O)c2c(nc(/C=C/c3ccc(OCc4ccccc4)cc3)n2C)n(CC)c1=O` [Compound 185, (E)-8-(4-Benzyloxystyryl)-1,3-diethyl-7-methylxanthine], for which the “Number of the Biting Attacks” value in data set [1] (10 mg/kg) is recorded as 46.9 ± 14.00. Moreover, the response vs control in vivo at 10 mg/kg in data set [1] (setting [3]) is 620%. Moreover, the “MLD (minimum lethal dose)” value in data set [2] was over 100 mg/kg.
On to `CCCn1c(=O)c2c(nc(/C=C/c3ccccc3)n2C)n(CCC)c1=O` [Compound 3, (E)-7-Methyl-1,3-dipropyl-8-styrylxanthine], for which, in data set [1] (10 mg/kg), the “Number of the Biting Attacks” value turned out to be 26.1 ± 5.42. Besides, in data set [1] (setting [3]), the response vs control in vivo at 10 mg/kg was 340%. Further, the “MLD (minimum lethal dose)” value in data set [2] is reported as over 300 mg/kg.
With `CCCn1c(=O)c2c(nc(/C=C/c3ccc(OC)c(OC)c3)n2C)n(CCC)c1=O` [Compound 1, (E)-8-(3,4-Dimethoxystyryl)-7-methyl-1,3-dipropylxanthine], in data set [1] (2.5 mg/kg), the “Number of the Biting Attacks” value was determined as 27.5 ± 7.3. For the same molecule, the response vs control in vivo at 2.5 mg/kg in data set [1] (setting [5]) is 480%. Also, in data set [2], the “MLD (minimum lethal dose)” value is given as over 300 mg/kg.
`CCn1c(=O)c2c(nc(/C=C/c3ccc(OC)c(OC)c3OC)n2C)n(CC)c1=O` [Compound 80, (E)-1,3-Diethyl-7-methyl-8-(2,3,4-trimethoxystyryl)xanthine]: the figures for the “Number of the Biting Attacks” value in data set [1] (0.63 mg/kg), in data set [1] (2.5 mg/kg) and in data set [1] (10 mg/kg) were 30.3 ± 7.00, 59.3 ± 12.37 and 67.5 ± 9.35, respectively. Also, in data set [1] (setting [4]), the response vs control in vivo at 0.63 mg/kg came out at 470%. Further, the “MLD (minimum lethal dose)” value in data set [2] is listed as over 300 mg/kg.
On to `CCn1c(=O)c2c(nc(/C=C/c3cccc(Br)c3)n2C)n(CC)c1=O` [Compound 162, (E)-8-(3-Bromostyryl)-1,3-diethyl-7-methylxanthine], for which the “Number of the Biting Attacks” value in data set [1] (10 mg/kg) worked out at 17.9 ± 6.67. In addition, the response vs control in vivo at 10 mg/kg in data set [1] (setting [3]) came out at 850%. Besides, the “MLD (minimum lethal dose)” value in data set [2] is over 100 mg/kg.
For `CCn1c(=O)c2c(nc(/C=C/c3cc(OC)c4c(c3)OCO4)n2C)n(CC)c1=O` [Compound 179, (E)-1,3-Diethyl-8-(3-methoxy-4,5-methylenedioxystyryl)7-methylxanthine], in data set [1] (10 mg/kg), the “Number of the Biting Attacks” value is on record as 67.7 ± 16.08. The “MLD (minimum lethal dose)” value in data set [2] is given as over 100 mg/kg.
Take `CCCn1c(=O)c2c(nc(/C=C/c3ccc(OC)c(C)c3C)n2C)n(CCC)c1=O` [Compound 14, (E)-8-(4-Methoxy-2,3-dimethylstyryl)-7-methyl-1,3-dipropylxanthine]: in data set [1] (2.5 mg/kg), the “Number of the Biting Attacks” value turned out to be 40.7 ± 8.50. Moreover, in data set [1] (setting [5]), the response vs control in vivo at 2.5 mg/kg stood at 730%. Also, the “MLD (minimum lethal dose)” value in data set [2] is over 300 mg/kg.
Turning to `CCCn1c(=O)c2c(nc(/C=C/c3ccc(OCC)cc3)n2C)n(CCC)c1=O` [Compound 49, (E)-8-(4-Ethoxystyryl)-7-methyl-1,3-dipropylxanthine], in data set [1] (10 mg/kg), the “Number of the Biting Attacks” value was 81.5 ± 13.97. Moreover, in data set [2], the “MLD (minimum lethal dose)” value was over 300 mg/kg.
Take `C=CCn1c(=O)c2c(nc(/C=C/c3cc(OC)c(OC)c(OC)c3)n2C)n(CC=C)c1=O` [Compound 7, (E)-1,3-Diallyl-7-methyl-8-(3,4,5-trimethoxystyryl)xanthine]: the “Number of the Biting Attacks” value in data set [1] (2.5 mg/kg) came out at 40.1 ± 8.36. Moreover, the response vs control in vivo at 2.5 mg/kg in data set [1] (setting [5]) turned out to be 640%. The “MLD (minimum lethal dose)” value in data set [2] is over 300 mg/kg.
Take `CCn1c(=O)c2c(nc(/C=C/c3ccccc3F)n2C)n(CC)c1=O` [Compound 168, (E)-1,3-Diethyl-8-(2-fluorostyryl)-7-methylxanthine]: the “Number of the Biting Attacks” value in data set [1] (10 mg/kg) is recorded as 53.9 ± 8.59. In data set [1] (setting [3]), the response vs control in vivo at 10 mg/kg stood at 710%. Besides, the “MLD (minimum lethal dose)” value in data set [2] is over 100 mg/kg.
On to `CCCOc1ccc(/C=C/c2nc3c(c(=O)n(CC)c(=O)n3CC)n2C)cc1` [Compound 126, (E)-1,3-Diethyl-7-methyl-8-(4-propoxystyryl)xanthine], for which the “Number of the Biting Attacks” value in data set [1] (10 mg/kg) is 80.0 ± 13.93. Further, the “MLD (minimum lethal dose)” value in data set [2] is recorded as over 300 mg/kg.
`CCn1c(=O)c2c(nc(/C=C/c3ccc(F)cc3)n2C)n(CC)c1=O` [Compound 150, (E)-1,3-Diethyl-8-(4-fluorostyryl)-7-methylxanthine]: in data set [1] (10 mg/kg), the “Number of the Biting Attacks” value was determined as 42.1 ± 10.18. For the same molecule, the “MLD (minimum lethal dose)” value in data set [2] is on record as over 100 mg/kg.
As to `CCn1c(=O)c2c(nc(/C=C/c3ccc(OC)c(F)c3)n2C)n(CC)c1=O` [Compound 173, (E)-1,3-Diethyl-8-(3-fluoro-4-methoxystyryl)-7-methylxanthine], the “Number of the Biting Attacks” value in data set [1] (10 mg/kg) was found to be 46.8 ± 14.89. The response vs control in vivo at 10 mg/kg in data set [1] (setting [3]) worked out at 620%. Besides, the “MLD (minimum lethal dose)” value in data set [2] is over 100 mg/kg.
With `Cn1c(=O)c2[nH]cnc2n(C)c1=O` [theophylline, reference compound], in data set [1] (10 mg/kg), the “Number of the Biting Attacks” value turned out to be 18.6 ± 3.58. In addition, in data set [1] (Mus musculus, read-out: Number of the Attacks of Test Compound-Treated Group/Number of the Attacks of Control Group), the response vs control in vivo at 10 mg/kg worked out at 520%.
Regarding `CCCn1c(=O)c2[nH]c(/C=C/c3ccc(OC)cc3OC)nc2n(CCC)c1=O` [Compound 25, (E)-8-(2,4-Dimethoxystyryl)-1,3-dipropylxanthine], the “MLD (minimum lethal dose)” value in data set [2] is over 100 mg/kg.
Consider `CCn1c(=O)c2c(nc(C(F)=Cc3ccccc3)n2C)n(CC)c1=O` (stereo in doubt) [Compound 138, (E)-1,3-Diethyl-8-(α-fluorostyryl)-7-methylxanthine], for which, in data set [2], the “MLD (minimum lethal dose)” value is over 100 mg/kg.
As for `CCn1c(=O)c2[nH]c(/C=C/c3cccc(OC)c3[N+](=O)[O-])nc2n(CC)c1=O` [Compound 121, (E)-1,3-Diethyl-8-(3-methoxy-2-nitrostyryl)xanthine], the “MLD (minimum lethal dose)” value in data set [2] was over 300 mg/kg.
Consider `CCn1c(=O)c2[nH]c(/C=C/c3cccc(C(F)(F)F)c3)nc2n(CC)c1=O` [Compound 163, (E)-1,3-Diethyl-8-(3-trifluoromethylstyryl)xanthine], for which the “MLD (minimum lethal dose)” value in data set [2] is listed as over 100 mg/kg.
With `CCCn1c(=O)c2nc(/C=C/c3cccc(Cl)c3)[nH]c2n(CCC)c1=O` [Compound 39, (E)-8-(3-Chlorostyryl)-1,3-dipropylxanthine], the “MLD (minimum lethal dose)” value in data set [2] is listed as over 100 mg/kg.
